The text below walks through data of publication PMC8705409, “Synthesis of sp^2-Iminosugar Selenoglycolipids as Multitarget Drug Candidates with Antiproliferative, Leishmanicidal and Anti-Inflammatory Properties” (Molecules, 2021).

The test system of data set [1] is A549 (lung) human solid tumor cell line. Briefly: Antiproliferative SRB assay (HTS), A549. The format is cell-based. The note with it: 48 h. The protocol:
(§1) All reagents were used as purchased from commercial suppliers without further purification. The human solid tumor cell lines used in this study were: A549, SW1573 (lung), HBL-100, T-47D (breast), HeLa (cervix) and WiDr (colon). These cell lines were a kind gift from Prof. G.J. Peters (VU Medical Center, Amsterdam, The Netherlands).
(§2) Cells were inoculated onto 96-well microtiter plates in a volume of 100 μL per well at densities of 2500 (A549, HBL-100, HeLa, and SW1573) and 5000 (T-47D and WiDr) cells per well, based on their doubling times. Compounds were initially dissolved in DMSO at 400 times the desired final maximum test concentration. Control cells were exposed to an equivalent concentration of DMSO (0.25% v/v, negative control). Each agent was tested in triplicate at different dilutions in the range of 1–100 μM. The drug treatment started on day 1 after plating. Drug incubation times were 48 h, after which cells were precipitated with 25 μL ice-cold TCA (50% w/v) and fixed for 60 min at 4 °C. Then the SRB assay was performed. The optical density (OD) of each well was measured at 530 nm, using BioTek’s PowerWave XS Absorbance Microplate Reader. Values were corrected for background OD from wells only containing medium. The antiproliferative activity for each compound, expressed as GI50 values, was calculated according to NCI formulas.

Data set [2] deals with SW1573 (lung) human solid tumor cell line. Briefly: Antiproliferative SRB assay (HTS), SW1573. The format is cell-based. The following applies: 48 h. The protocol: as §1, §2
For data set [3], the system named is HBL-100 (breast) human solid tumor cell line. Briefly: Antiproliferative SRB assay (HTS), HBL-100. The following applies: 48 h. The format is cell-based. Here is the method:
as §1, §2

The test system of data set [4] is T-47D (breast) human solid tumor cell line. Briefly: Antiproliferative SRB assay (HTS), T-47D. The data set is classed as cell-based. The following applies: T47D, 48 h. The protocol: as §1, §2
Data set [5] concerns HeLa (cervix) human solid tumor cell line. The data set can be described thus: Antiproliferative SRB assay (HTS), HeLa. The format is cell-based. The following applies: 48 h. Here is the method: as §1, §2
The subject of data set [6] is WiDr (colon) human solid tumor cell line. The data set can be described thus: Antiproliferative SRB assay (HTS), WiDr. The note with it: 48 h. The data set is classed as cell-based. Here is the method:
as §1, §2

In data set [7] the test system is human solid tumor cell lines A549, SW1573, HBL-100, T-47D, HeLa, WiDr. Briefly: Antiproliferative SRB assay (HTS), whole panel of six cell lines. The note with it: for GI50: Homo sapiens, range over the six tumor cell lines, read-out: GI50 against all the cell lines tested. The format is cell-based. Here is the method:
as §1, §2

In data set [8] the test system is intracellular amastigotes of Leishmania donovani HU3. Briefly: Susceptibility of intracellular Leishmania amastigotes (luciferase) in THP-1 macrophages. The following applies: L. donovani HU3 in macrophage-differentiated THP-1, 72 h, threshold 20 μM. The data set is classed as cell-based. The protocol: Macrophage-differentiated-THP-1 cells, which are considered a suitable model for human macrophages, were plated at a density of 3 × 10^4 macrophages/well in 96-well white polystyrene microplates, and were infected at a macrophage/parasite ratio of 1:10 with L. donovani HU3 promastigotes. 24 h after infection at 35 °C and 5% CO2, extracellular parasites were removed by washing with serum-free medium. Infected cell cultures were then incubated at different compound concentrations in RPMI 1640 medium plus 10% iFBS at 37 °C with 5% CO2 for 72 h. To determine the susceptibility of L. donovani-LUC amastigotes, infected macrophages maintained in 96-well plates were lysed and then luminescence intensity was measured as indicative of the intracellular parasite growth, using the Luciferase Assay System Kit (Promega, Madison, WI, USA) according to the instructions of the supplier.

Data set [9] in a line: Cellular toxicity, MTT assay, THP-1. The data set is classed as cell-based. The note with it: human, maximal concentration 200 µM, read-out: EC50 THP-1 Cell Line (cytotoxicity). The protocol:
(§3) Human myelomonocytic cell line THP-1 was grown at 37 °C and 5% CO2 in RPMI-1640 supplemented with 10% iFBS, 2 mM […], 100 U/mL penicillin and 100 μg/mL streptomycin. 3 × 10^4 cells/well in 96-well plates were differentiated to macrophages with 20 ng/mL of PMA treatment for 48 h followed by 24 h of culture in fresh medium. MRC5 cells were grown at 37 °C and 5% CO2 in DMEM complete media. 4000 cells/well in 96-well plates were incubated for 24 h at 37 °C and 5% CO2.
(§4) Cellular toxicity of all compounds was determined using the colorimetric MTT-based assay after incubation at 37 °C for 72 h in the presence of increasing concentrations of compounds (final maximal concentrations 200 µM). The results are expressed as EC50 values, as the concentration of the compound that reduce cell growth by 50% versus untreated control cells. Assays were performed in triplicate.

Data set [10] is described as follows: Cellular toxicity, MTT assay, MRC-5. The note with it: human, maximal concentration 200 µM, read-out: EC50 MRC-5 Cell Line (cytotoxicity). The data set is classed as cell-based. The protocol: as §3, §4
Data set [11] deals with Bv.2 microglia cells. The data set can be described thus: Cellular viability by crystal violet staining. The data set is classed as cell-based, mouse. The following applies: Bv.2 cells, 24 h, different concentrations. Here is the method:
(§5) Mouse microglia Bv.2 cell line was supplied by Dr. M.L. Nieto (IBGM, Valladolid, Spain). Bv.2 cells were cultured at 37 °C in a humidified atmosphere with 5% CO2 in RPMI supplemented with 10% (v/v) heat-inactivated FBS, 1% (v/v) penicillin/streptomycin (Sigma) and 2 mM L-glutamine (Gibco, Carlsbad, CA, USA). Cells were grown up to 70% confluence and then washed twice with PBS and further cultured in serum-free medium and stimulated with LPS (200 ng/mL) with or without 14/10 (0.1–50 µM) for 24 h.
After cell treatments, the medium was discarded, and the remaining viable adherent cells were stained with crystal violet (0.2% w/v in 2% ethanol) for 20 min. After this time, plates were rinsed with tap water and allowed to dry, and 1% SDS was added to solubilize them. The absorbance of each plate was read spectrophotometrically at 560 nm.

Data set [12] relates to nitrite production in Bv.2 microglial cells. Briefly: Nitrite production in LPS-stimulated Bv.2 cells (Griess method). The data set is classed as cell-based, mouse. The following applies: LPS 200 ng/mL, 24 h. The protocol: as §5
Nitrite levels were measured by using the Griess method. Briefly, nitrites turn into a pink compound in contact with an acid solution containing 1% sulphanilamide and 0.1% N-(1-naphthyl)ethylenediamine (NEDA), and can be quantified by a colorimetric method at 540 nm in a microplate reader (Versamax Tunable Microplate reader, Molecular Devices, Sunnyvaley, CA, USA).

Data set [13] relates to iNOS expression in Bv.2 microglial cells. The data set can be described thus: LPS-induced iNOS protein expression (Western blot). The data set is classed as cell-based, mouse. The following applies: Bv.2 cells, LPS 200 ng/mL, compound at 10 μM. The protocol:
as §5
(§6) Bv.2 microglial cells were homogenized in lysis buffer containing 50 mM Tris-HCl, pH 7.4, 150 mM NaCl, 1 mM Na3VO4, 1 mM NaF, 1 mM EGTA, […] and 0.25% (w/v) sodium deoxycholate, supplemented with protease inhibitors (10 µg/mL leupeptin, 10 µg/mL aprotinin, and 100 µg/mL phenylmethylsulphonyl fluoride). All debris was removed by centrifugation at 14,000× g for 10 min at 4 °C and protein concentration was quantified using the Bio-Rad protein assay with BSA as a standard. Equivalent amounts of protein were resolved using denaturing sodium dodecyl sulphate-polyacrylamide gel electrophoresis (SDS-PAGE), followed by transfer to PVDF membranes (Bio-Rad). […]
(§7) Densitometry of the Western blots was performed using the ImageJ program. […] Data were analyzed by one-way ANOVA followed by Bonferroni t-test or by paired t-test when comparisons were among two groups. […]

For data set [14], the system named is arginase-1 expression in Bv.2 microglial cells. The data set can be described thus: Arginase-1 levels (Western blot). The following applies: Bv.2 cells, absence or presence of LPS 200 ng/mL; 10 at 10 μM, 14 at 50 μM. The format is cell-based, mouse. The protocol: as §5, §6, §7
Where [15] appears, read: THP-1 cells differentiated to macrophages with PMA.

Structures are written as SMILES. Entries after “also recorded” stand apart in the source; their conditions may differ. Bounds are passed on as bounds.

As to `O=C1OC[C@@H]2[C@@H](O)[C@H](O)[C@@H](O)[C@@H]([Se]c3ccccc3)N12` [Compound 8, (1R)-1-Phenylseleno-5N,6O-oxomethylidenenojirimycin], the GI50 in data set [1], in data set [2], in [3], in data set [4], in [5] and in data set [6] was over 100 µM in each case. In [7] (panel of six tumor cell lines), the “antiproliferative activity” value is “lack of activity; also recorded: inactive”. This compound also registered an EC50 in [8] of over 20 µM. Further, the EC50 at 72 h in [9] is over 200 µM; in data set [10], 172 ± 27 µM.

In the case of `CCCCCCCC[Se][C@@H]1[C@H](O)[C@@H](O)[C@H](O)[C@H]2COC(=O)N21` [Compound 9, (1R)-1-Octylseleno-5N,6O-oxomethylidenenojirimycin], the GI50 was 36 µM in [1]; over 100 µM in [2]; over 100 µM in data set [3]; 71 µM in data set [4]; 49 µM in [5]; 64 µM in data set [6]. Moreover, the GI50 in data set [7] was at least 36 µM. Also, the 50% effective concentration (EC50) in data set [8] was over 20 µM. Moreover, the EC50 at 72 h is over 200 µM in data set [9] and 94.3 ± 4.95 µM in [10].

Regarding `CCCCCCCCCCCC[Se][C@@H]1[C@H](O)[C@@H](O)[C@H](O)[C@H]2COC(=O)N21` [Compound 10, (1R)-1-Dodecylseleno-5N,6O-oxomethylidenenojirimycin], the GI50 in data set [1] was found to be 18 µM; in [2], 28 µM; in data set [3] it was 24 µM; in data set [4], 21 µM; in data set [5], 22 µM; in [6] it was 22 µM. Moreover, the GI50 in [7] is 16 to 28 µM. This compound also yielded an EC50 in data set [8] of 13.4 ± 1.63 µM. The EC50 at 72 h is 84.25 ± 0.06 µM in data set [9] and 31.2 ± 1.61 µM in [10]. In [11], the “effect on cellular viability” value is reported as “none of the concentrations used induced a negative effect”. For the same compound, the “concentration at which nitrite production reached basal level” value in data set [12] was 10 µM. For the same compound, in [13], the “effect on LPS-elicited enhancement of iNOS” value was “fully abrogated”. Moreover, in [14], the “induction of arginase-1” value is reported as “direct effect on the induction of arginase-1”.

On to `CCCCCCCCN[C@@H]1[C@H](O)[C@@H](O)[C@H](O)[C@H]2COC(=O)N21` [Compound 11, (1S)-1-amino-N-octyl-5N,6O-oxomethylidene-1-deoxynojirimycin], for which the concentration for 50% growth inhibition (GI50) in data set [1], in data set [2], in data set [3], in data set [4], in data set [5] and in [6] was over 100 µM in each case. Also, the GI50 in data set [7] is over 100 µM. For the same compound, the EC50 in data set [8] was over 20 µM. Moreover, the results for the EC50 at 72 h in [9] (setting [15]) and in data set [10] (MRC-5 cells) were 209 ± 10.3 µM and 155 ± 5.3 µM, respectively.

For the compound `CCCCCCCCCCCCN[C@@H]1[C@H](O)[C@@H](O)[C@H](O)[C@H]2COC(=O)N21` [Compound 12, (1S)-1-Amino-N-dodecyl-5N,6O-oxomethylidene-1-deoxynojirimycin], the GI50 was found to be 18 µM in data set [1]; 30 µM in data set [2]; 23 µM in [3]; 23 µM in [4]; 23 µM in data set [5]; 22 µM in data set [6]. In data set [7], the concentration for 50% growth inhibition (GI50) was 18 to 30 µM. In [8], this compound yielded an EC50 of over 20 µM. Also, the EC50 at 72 h in data set [9] (setting [15]) amounted to 122 ± 13.3 µM; in data set [10] (MRC-5 cells), 49.6 ± 4.2 µM.

Take `CCCCCCCCS[C@@H]1[C@H](O)[C@@H](O)[C@H](O)[C@H]2COC(=O)N21` [Compound 13, (1R)-1-octylthio-5N,6O-oxomethylidenenojirimycin]: the GI50 is 58 µM in data set [1]; over 100 µM in data set [2]; 73 µM in data set [3]; 95 µM in data set [4]; 92 µM in data set [5]; 89 µM in data set [6]. For the same compound, in data set [7], the GI50 is at least 36 µM. The compound also showed an EC50 in data set [8] of over 20 µM. Further, the results for the EC50 at 72 h in [9] (setting [15]) and in data set [10] (MRC-5 cells) were 122 ± 5.79 µM and 58.1 ± 12.6 µM, respectively.

For the compound `CCCCCCCCCCCCCCCCOP(=O)([O-])OCC[N+](C)(C)C` [Miltefosine, reference compound], the EC50 in data set [8] was determined as 0.44 ± 0.08 µM. Besides, the EC50 at 72 h in data set [9] (setting [15]) came out at 26.9 ± 3.08 µM; in data set [10] (MRC-5 cells) it was 57.6 ± 6.38 µM.
